From US20080254480A1, “MICROCYTOXICITY ASSAY BY PRE-LABELING TARGET CELLS” (University of Pittsburgh - Of the Commonwealth System of …, priority 2007, published 2008)

Assays:
BT-20 tumor cells = experiment: BrdU labeling of cell nuclear DNA of target cells in microwells of Tarasaki plates; type: cell-based, human; conditions: 5 μM of BrdU, co-incubated for 24 hours
Method: FIG. 2. Graph depicting BrdU concentration versus incubation period for labeling of target cells in microwells of Tarasaki plates. BT-20 tumor cells (250/microwell) were seeded in the miniplates and incubated for 24 hours. Various concentrations of BrdU then were added to the microwells containing adherent tumor cells, and the incubation was continued for various periods of time, as indicated. After this labeling, the adherent tumor cells were fixed and stained, with an isotype-matched control or an anti-BrdU mAb, and then visually analyzed. Each point on the figure represents a mean value of a triplicate. SD was less than 10% of the mean values.
BrdU-labeling of target cells in microwells. Suspensions of tumor target cells were prepared from their adherent monolayers, as described above. Target cells were resuspended in tissue culture medium (e.g., RPMI-1640 supplemented with 10% FCS) in an adequate concentration, to contain 100 to 500 cells per 10 μl. BrdU solution was added to this cell suspension, to get its final concentration of 5 μM. In some experiments, to determine the optimal labeling conditions, the concentration of BrdU was varied. […]

target cells = experiment: Functional properties of BrdU labeled target cells (viability, proliferation, TNF family receptor expression); type: cell-based; conditions: trypan blue dye exclusion; increase of cell numbers in culture; flow cytometry
Source text: In order to determine whether BrdU labeling of cell nuclear DNA affects cellular functions, the inventor examined viability (by trypan blue dye exclusion assay) and proliferation (by evaluation of increase of cell numbers in culture) of target cells, after they were labeled with the DNA metabolic label. In addition, expression of the cell membrane-bound TNF family receptors involved in apoptosis mediated by immune effector cells, such as TNFR1, TNFR2, Fas and LT-βR, was investigated using flow cytometry.

## O=c1[nH]c(=O)n([C@H]2C[C@H](O)[C@@H](CO)O2)cc1Br [BrdU, 5-bromo-2′-deoxyuridine]
BT-20 tumor cells
  strong and uniformed labeling of nuclei: 90%
Target cells
  effect of BrdU labeling on cellular functions tested (viability, proliferation, expression of TNFR1, TNFR2, Fas and LT-βR): no significant effect
